Test results as given in patent publication US11702646B2, “Methods for modulating RNA splicing” (PTC THERAPEUTICS, INC., priority 2016, dated 2023).

Columns and labels:
Type in all cases: cell-based
[1] = test system: iExons for certain genes (as specified in the figures); assay: Dose dependent production of iExons in the presence of compound or control (DMSO); conditions: FIGS. 2A-2D, versus control (DMSO)
Procedure: In some embodiments, a dose-response assay is performed. […] In another embodiment, the dose-response assay comprises: (a) contacting each well of a microtiter plate containing cells with a different concentration of a compound of Formula (I) or a form thereof; (b) determining the amount of an RNA transcript produced by cells in each well; and (c) assessing the change of the amount of the RNA transcript at the different concentrations of the compound or form thereof. […]
In specific embodiments, the amount of alternatively spliced forms of the RNA transcripts of a particular gene are measured to see if there is an alteration in the amount of one, two or more alternatively spliced forms of the RNA transcripts of the gene. In some embodiments, the amount of an isoform(s) encoded by a particular gene is measured to see if there is an alteration in the amount of the isoform(s). In certain embodiments, the levels of spliced forms of RNA are quantified by RT-PCR, RT-qPCR, RNA-Seq, digital color-coded barcode technology, or Northern blot. […] In certain embodiments, splicing is measured in vitro using nuclear extracts. In some embodiments, detection is based on measuring radioactivity or fluorescence. […] In a specific embodiment, modulation of RNA transcripts is assessed as described in the Examples described herein.

[2] = test system: RNA transcripts in PNN cell line; assay: ΔPSI (iExon production / exon inclusion), FET and Fold Decrease of RNA transcripts in PNN cell line treated at 3 μM; conditions: for FD PNN: Fold Decrease
Procedure: (§1) Results: The statistically significant value for the likelihood of iExon production (ΔPSI) according to the Fisher's Exact Test (FET) for PNN and HDF cell lines treated with Compound 774 at 3 μM and Fold Decrease (FD) for certain genes tested, where NR represents “Not Reported,” is shown in Table 10.
(§2) The ΔPSI for inclusion of an iExon and resulting modulated expression of RNA transcripts identified is represented by stars, where one star (*) represents ≤25% change in expression, where two stars (**) represent change in expression in a range from <26% to ≤50% change, where three stars (***) represent change in expression in a range from <51% to ≤75% change, and, where four stars (****) represent change in expression in a range from <75% to ≤100% change.
(§3) Results: The statistically significant value for the likelihood of exon inclusion (ΔPSI) according to the Fisher's Exact Test (FET) for PNN and HDF cell lines treated with Compound 774 at 3 μM and Fold Decrease (FD) for certain genes tested, where NR represents “Not Reported,” is shown in Table 10a.
as §2, with “exon” for “iExon”

[3] = test system: RNA transcripts in HDF cell line; assay: ΔPSI (iExon production / exon inclusion), FET and Fold Decrease of RNA transcripts in HDF cell line treated at 3 μM; conditions: for FD HDF: Fold Decrease
Procedure: as §1, §2, §3
as §2, with “exon” for “iExon”

[4] = gene FAM198B, exon e3, PNN cells, 3 μM
[5] = gene PRUNE2, exon e18, PNN cells, 3 μM
[6] = gene FAM198B, exon e3, HDF cells, 3 μM
[7] = gene PRUNE2, exon e18, HDF cells, 3 μM

SMILES: CCc1nc(C)cn2nc(-c3cc(=O)n4cc(C5CCN(C)CC5)cc(C)c4n3)cc12 [Compound 774]
- dose dependent production of iExons for certain genes [1]: dose dependent production of iExons
- FD PNN [2, 4]: −1.81
- FD PNN [2, 5]: −0.52
- ΔPSI (PNN) ([2]; gene APLP2, exon e7, PNN cells, 3 μM): ** (two stars (**) represent change in expression in a range from <26% to ≤50% change)
- ΔPSI (PNN) ([2]; gene AXIN1, exon e9, PNN cells, 3 μM): ** (two stars (**) represent change in expression in a range from <26% to ≤50% change)
- ΔPSI (PNN) ([2]; gene CECR7, exon e5, PNN cells, 3 μM): * (one star (*) represents ≤25% change in expression)
- ΔPSI (PNN) ([2]; gene DAGLB, exon e4, PNN cells, 3 μM): * (one star (*) represents ≤25% change in expression)
- ΔPSI (PNN) ([2]; gene DLGAP4, exon e8, PNN cells, 3 μM): * (one star (*) represents ≤25% change in expression)
- ΔPSI (PNN) ([2]; gene ERCC1, exon e8, PNN cells, 3 μM): * (one star (*) represents ≤25% change in expression)
- ΔPSI (PNN) ([2]; gene ERGIC3, exon e8, PNN cells, 3 μM): * (one star (*) represents ≤25% change in expression)
- ΔPSI (PNN) [2, 4]: * (one star (*) represents ≤25% change in expression)
- ΔPSI (PNN) ([2]; gene GGCT, exon e2, PNN cells, 3 μM): ** (two stars (**) represent change in expression in a range from <26% to ≤50% change)
- ΔPSI (PNN) ([2]; gene HAT1, exon e3, PNN cells, 3 μM): * (one star (*) represents ≤25% change in expression)
- ΔPSI (PNN) ([2]; gene HPS1, exon e5, PNN cells, 3 μM): * (one star (*) represents ≤25% change in expression)
- ΔPSI (PNN) ([2]; gene INPP5K, exon e2, PNN cells, 3 μM): * (one star (*) represents ≤25% change in expression)
- ΔPSI (PNN) ([2]; gene MADD, exon e21, PNN cells, 3 μM): * (one star (*) represents ≤25% change in expression)
- ΔPSI (PNN) ([2]; gene PPHLN1, exon e3, PNN cells, 3 μM): *** (three stars (***) represent change in expression in a range from <51% to ≤75% change)
- ΔPSI (PNN) [2, 5]: * (one star (*) represents ≤25% change in expression)
- ΔPSI (PNN) ([2]; gene RAP1A, exon e2, PNN cells, 3 μM): * (one star (*) represents ≤25% change in expression)
- ΔPSI (PNN) ([2]; gene RNFT1, exon e3, PNN cells, 3 μM): * (one star (*) represents ≤25% change in expression)
- ΔPSI (PNN) ([2]; gene RPS6KB2, exon e2, PNN cells, 3 μM): * (one star (*) represents ≤25% change in expression)
- ΔPSI (PNN) ([2]; gene SH3YL1, exon e9, PNN cells, 3 μM): * (one star (*) represents ≤25% change in expression)
- ΔPSI (PNN) ([2]; gene SKA2, exon e3, PNN cells, 3 μM): * (one star (*) represents ≤25% change in expression)
- ΔPSI (PNN) ([2]; gene SPATA18, exon e4, PNN cells, 3 μM): ** (two stars (**) represent change in expression in a range from <26% to ≤50% change)
- ΔPSI (PNN) ([2]; gene STRN3, exon e8, PNN cells, 3 μM): **** (four stars (****) represent change in expression in a range from <75% to ≤100% change)
- ΔPSI (PNN) ([2]; gene TMEM189-UBE2V1, exon e6, PNN cells, 3 μM): * (one star (*) represents ≤25% change in expression)
- ΔPSI (PNN) ([2]; gene TRIM65, exon e5, PNN cells, 3 μM): *** (three stars (***) represent change in expression in a range from <51% to ≤75% change)
- ΔPSI (PNN) ([2]; gene TUBE1, exon e4, PNN cells, 3 μM): * (one star (*) represents ≤25% change in expression)
- ΔPSI (PNN) ([2]; gene UBE2V1, exon e3, PNN cells, 3 μM): * (one star (*) represents ≤25% change in expression)
- ΔPSI (PNN) ([2]; gene VPS29, exon e2, PNN cells, 3 μM): ** (two stars (**) represent change in expression in a range from <26% to ≤50% change)
- ΔPSI (PNN) ([2]; gene ZFP82, iExon inclusion position i4, PNN cell line, Compound 774 at 3 μM): ** (two stars (**) represent change in expression in a range from <26% to ≤50% change)
- ΔPSI (PNN) ([2]; gene ZNF37BP, iExon inclusion position i4, PNN cell line, Compound 774 at 3 μM): **** (four stars (****) represent change in expression in a range from <75% to ≤100% change)
- ΔPSI (PNN) ([2]; gene ZNF138, iExon inclusion position i3, PNN cell line, Compound 774 at 3 μM): *** (three stars (***) represent change in expression in a range from <51% to ≤75% change)
- ΔPSI (PNN) ([2]; gene ZNF232, iExon inclusion position i4, PNN cell line, Compound 774 at 3 μM): * (one star (*) represents ≤25% change in expression)
- ΔPSI (PNN) ([2]; gene ZNF680, exon e3, PNN cells, 3 μM): * (one star (*) represents ≤25% change in expression)
- FD HDF [3, 6]: −0.35
- FD HDF [3, 7]: −1.74
- ΔPSI (HDF) ([3]; gene APLP2, exon e7, HDF cells, 3 μM): ** (two stars (**) represent change in expression in a range from <26% to ≤50% change)
- ΔPSI (HDF) ([3]; gene AXIN1, exon e9, HDF cells, 3 μM): * (one star (*) represents ≤25% change in expression)
- ΔPSI (HDF) ([3]; gene CECR7, exon e5, HDF cells, 3 μM): * (one star (*) represents ≤25% change in expression)
- ΔPSI (HDF) ([3]; gene DAGLB, exon e4, HDF cells, 3 μM): * (one star (*) represents ≤25% change in expression)
- ΔPSI (HDF) ([3]; gene DLGAP4, exon e8, HDF cells, 3 μM): * (one star (*) represents ≤25% change in expression)
- ΔPSI (HDF) ([3]; gene ERCC1, exon e8, HDF cells, 3 μM): * (one star (*) represents ≤25% change in expression)
- ΔPSI (HDF) ([3]; gene ERGIC3, exon e8, HDF cells, 3 μM): * (one star (*) represents ≤25% change in expression)
- ΔPSI (HDF) [3, 6]: * (one star (*) represents ≤25% change in expression)
- ΔPSI (HDF) ([3]; gene GGCT, exon e2, HDF cells, 3 μM): ** (two stars (**) represent change in expression in a range from <26% to ≤50% change)
- ΔPSI (HDF) ([3]; gene HAT1, exon e3, HDF cells, 3 μM): * (one star (*) represents ≤25% change in expression)
- ΔPSI (HDF) ([3]; gene HPS1, exon e5, HDF cells, 3 μM): * (one star (*) represents ≤25% change in expression)
- ΔPSI (HDF) ([3]; gene INPP5K, exon e2, HDF cells, 3 μM): * (one star (*) represents ≤25% change in expression)
- ΔPSI (HDF) ([3]; gene MADD, exon e21, HDF cells, 3 μM): * (one star (*) represents ≤25% change in expression)
- ΔPSI (HDF) ([3]; gene PPHLN1, exon e3, HDF cells, 3 μM): ** (two stars (**) represent change in expression in a range from <26% to ≤50% change)
- ΔPSI (HDF) [3, 7]: ** (two stars (**) represent change in expression in a range from <26% to ≤50% change)
- ΔPSI (HDF) ([3]; gene RAP1A, exon e2, HDF cells, 3 μM): * (one star (*) represents ≤25% change in expression)
- ΔPSI (HDF) ([3]; gene RNFT1, exon e3, HDF cells, 3 μM): * (one star (*) represents ≤25% change in expression)
- ΔPSI (HDF) ([3]; gene RPS6KB2, exon e2, HDF cells, 3 μM): * (one star (*) represents ≤25% change in expression)
- ΔPSI (HDF) ([3]; gene SH3YL1, exon e9, HDF cells, 3 μM): * (one star (*) represents ≤25% change in expression)
- ΔPSI (HDF) ([3]; gene SKA2, exon e3, HDF cells, 3 μM): * (one star (*) represents ≤25% change in expression)
- ΔPSI (HDF) ([3]; gene SPATA18, exon e4, HDF cells, 3 μM): * (one star (*) represents ≤25% change in expression)
- ΔPSI (HDF) ([3]; gene STRN3, exon e8, HDF cells, 3 μM): *** (three stars (***) represent change in expression in a range from <51% to ≤75% change)
- ΔPSI (HDF) ([3]; gene TMEM189-UBE2V1, exon e6, HDF cells, 3 μM): * (one star (*) represents ≤25% change in expression)
- ΔPSI (HDF) ([3]; gene TRIM65, exon e5, HDF cells, 3 μM): ** (two stars (**) represent change in expression in a range from <26% to ≤50% change)
- ΔPSI (HDF) ([3]; gene TUBE1, exon e4, HDF cells, 3 μM): * (one star (*) represents ≤25% change in expression)
- ΔPSI (HDF) ([3]; gene UBE2V1, exon e3, HDF cells, 3 μM): * (one star (*) represents ≤25% change in expression)
- ΔPSI (HDF) ([3]; gene VPS29, exon e2, HDF cells, 3 μM): ** (two stars (**) represent change in expression in a range from <26% to ≤50% change)
- ΔPSI (HDF) ([3]; gene ZFP82, iExon inclusion position i4, HDF cell line, Compound 774 at 3 μM): ** (two stars (**) represent change in expression in a range from <26% to ≤50% change)
- ΔPSI (HDF) ([3]; gene ZNF37BP, iExon inclusion position i4, HDF cell line, Compound 774 at 3 μM): *** (three stars (***) represent change in expression in a range from <51% to ≤75% change)
- ΔPSI (HDF) ([3]; gene ZNF138, iExon inclusion position i3, HDF cell line, Compound 774 at 3 μM): * (one star (*) represents ≤25% change in expression)
- ΔPSI (HDF) ([3]; gene ZNF232, iExon inclusion position i4, HDF cell line, Compound 774 at 3 μM): * (one star (*) represents ≤25% change in expression)
- ΔPSI (HDF) ([3]; gene ZNF680, exon e3, HDF cells, 3 μM): * (one star (*) represents ≤25% change in expression)
